From the supplement of paper PMC6045584
± gives the standard deviation of the averaged measurements.

Experiments:
VORINOSTAT = compound: O=C(CCCCCCC(=O)Nc1ccccc1)NO [VORINOSTAT]; assay: surviving fraction relative to DMSO-only wells; higher = less growth inhibition; conditions: exposure time: 5 days
Outline: (§1)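 Log-phase tumour cell lines were seeded at 250–500 cells per well in 384-well plates. After 24 hours they were exposed continuously for five days to inhibitors at 0.5, 1, 5, 10, 50, 100, 500 and 1000 nM. Viability was read by CellTiter-Glo luminescence after 10 minutes at room temperature, and surviving fraction is luminescence normalised to the median of DMSO-only wells. Each line was screened three times and kept only if replicate Pearson r >0.7 and median Z' >0.3.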

CABOZANTINIB [1] = compound: T1, COc1cc2nccc(Oc3ccc(NC(=O)C4(C(=O)Nc5ccc(F)cc5)CC4)cc3)c2cc1OC [CABOZANTINIB]; assay: as above; conditions: exposure time: 5 days
Outline: as §1

BMN-673 = compound: Cn1ncnc1[C@H]1c2n[nH]c(=O)c3cc(F)cc(c23)N[C@@H]1c1ccc(F)cc1 [BMN-673]; assay: area under dose-response curve of surviving fraction (unscaled, Aref=0) (surviving fraction x log10(nM)); higher = more resistant; conditions: exposure time: 5 days; dose range 0.5-1000 nM
Outline: (§2)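 Each tumour cell line was screened three times in 384-well plates, receiving eight inhibitor concentrations from 0.5 to 1000 nM for five days. CellTiter-Glo luminescence gave viability, normalised to DMSO-only wells. Using the drc R package, surviving fractions were fitted with 3-parameter logistic dose-response curves, and the unscaled activity area over log10 dose (Aref = 0) was taken as the area under the curve.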

[2] = compound: C[C@@H]1CN(CC(=O)Nc2ccc3c(c2)Cc2cccc(-c4cc(=O)cc(N5CCOCC5)o4)c2S3)C[C@H](C)O1; assay: as above; conditions: exposure time: 5 days; dose range 0.5-1000 nM
Outline: as §2

CABOZANTINIB [3] = compound: T1, CABOZANTINIB; assay: as above; conditions: exposure time: 5 days; dose range 0.5-1000 nM
Outline: as §2

| Test System | surviving fraction (VORINOSTAT; 0.5 nM) | surviving fraction (VORINOSTAT; 1 nM) | surviving fraction (VORINOSTAT; 5 nM) | surviving fraction (VORINOSTAT; 10 nM) | surviving fraction (VORINOSTAT; 50 nM) | surviving fraction (VORINOSTAT; 100 nM) | surviving fraction (VORINOSTAT; 500 nM) | surviving fraction (VORINOSTAT; 1000 nM) | surviving fraction (CABOZANTINIB [1]; 0.5 nM) | surviving fraction (CABOZANTINIB [1]; 1 nM) | surviving fraction (CABOZANTINIB [1]; 5 nM) | surviving fraction (CABOZANTINIB [1]; 10 nM) | surviving fraction (CABOZANTINIB [1]; 50 nM) | surviving fraction (CABOZANTINIB [1]; 100 nM) | surviving fraction (CABOZANTINIB [1]; 500 nM) | surviving fraction (CABOZANTINIB [1]; 1000 nM) | area under dose-response curve (BMN-673) | area under dose-response curve [2] | area under dose-response curve (CABOZANTINIB [3]) |
| --- | --- | --- | --- | --- | --- | --- | --- | --- | --- | --- | --- | --- | --- | --- | --- | --- | --- | --- | --- |
| A549 LUNG | 0.961 ± 0.026 | 0.9313 ± 0.009 | 0.923 ± 0.062 | 0.919 ± 0.042 | 1.04 ± 0.019 | 1.02 ± 0.061 | 1.18 ± 0.027 | 1.116 ± 0.006 | 1.03 ± 0.016 | 0.976 ± 0.028 | 0.977 ± 0.022 | 0.98 ± 0.012 | 1.01 ± 0.02 | 1.01 ± 0.03 | 0.994 ± 0.021 | 0.97 ± 0.029 | 3.58 | 3.58 | 3.3 |
| BT20 BREAST | 1.05 ± 0.17 | 1.09 ± 0.21 | 1.06 ± 0.17 | 1.05 ± 0.2 | 0.941 ± 0.21 | 0.943 ± 0.22 | 0.872 ± 0.19 | 0.491 ± 0.12 | 1.02 ± 0.047 | 1.09 ± 0.097 | 1.05 ± 0.069 | 1.2 ± 0.08 | 1.11 ± 0.012 | 1.19 ± 0.11 | 1.19 ± 0.1 | 1.17 ± 0.18 | 2.9 | – | 3.73 |
| BT549 BREAST | 1.12 ± 0.083 | 1.14 ± 0.11 | 1.15 ± 0.029 | 1.22 ± 0.051 | 1.12 ± 0.17 | 1.11 ± 0.068 | 0.773 ± 0.073 | 0.534 ± 0.034 | 1.05 ± 0.047 | 1.02 ± 0.024 | 1.07 ± 0.034 | 1.02 ± 0.2 | 1.22 ± 0.017 | 1.13 ± 0.16 | 1.12 ± 0.18 | 1.16 ± 0.14 | 2.53 | 2.89 | 3.6 |
| C33A CERVIX | 0.86 ± 0.078 | 0.952 ± 0.064 | 1.04 ± 0.031 | 1.05 ± 0.098 | 1.04 ± 0.15 | 1.05 ± 0.096 | 0.805 ± 0.014 | 0.615 ± 0.048 | 0.753 ± 0.12 | 0.696 ± 0.036 | 0.941 ± 0.021 | 0.885 ± 0.076 | 0.862 ± 0.071 | 0.919 ± 0.019 | 0.702 ± 0.0072 | 0.676 ± 0.068 | 1.82 | 3.44 | 2.65 |
| CME SYNOVIAL | 1.25 ± 0.12 | 1.15 ± 0.087 | 1.21 ± 0.061 | 0.882 ± 0.044 | 1.28 ± 0.1 | 1.08 ± 0.043 | 0.607 ± 0.089 | 0.383 ± 0.027 | 1.23 ± 0.11 | 1.24 ± 0.16 | 1.24 ± 0.11 | 1.21 ± 0.042 | 1.2 ± 0.046 | 1.19 ± 0.15 | 1.1 ± 0.071 | 1.01 ± 0.12 | 0.962 | – | 3.92 |
| DU4475 BREAST | 1.41 ± 0.74 | 1.08 ± 0.76 | 1.05 ± 0.56 | 1.25 ± 0.66 | 1.07 ± 0.57 | 0.952 ± 0.38 | 0.627 ± 0.22 | 0.431 ± 0.17 | 0.782 ± 0.12 | 0.874 ± 0.076 | 0.868 ± 0.053 | 0.93 ± 0.16 | 0.899 ± 0.19 | 0.781 ± 0.085 | 0.908 ± 0.096 | 1.03 ± 0.12 | 1.63 | 3.52 | 2.93 |
| HOSMNG BONE | 0.994 ± 0.12 | 0.94 ± 0.091 | 0.996 ± 0.17 | 1.06 ± 0.064 | 0.999 ± 0.048 | 1.09 ± 0.063 | 1.06 ± 0.023 | 1.09 ± 0.02 | 0.961 ± 0.061 | 0.984 ± 0.053 | 0.885 ± 0.036 | 0.913 ± 0.1 | 0.833 ± 0.038 | 0.839 ± 0.018 | 0.314 ± 0.0085 | 0.274 ± 0.011 | 3.19 | 3.27 | 2.68 |
| NOS1 BONE | 1.01 ± 0.05 | 0.982 ± 0.17 | 1.04 ± 0.021 | 1.03 ± 0.056 | 1.14 ± 0.15 | 1.07 ± 0.091 | 0.713 ± 0.089 | 0.284 ± 0.0091 | 1.09 ± 0.062 | 1.08 ± 0.012 | 1.12 ± 0.078 | 1.16 ± 0.073 | 0.944 ± 0.029 | 0.841 ± 0.04 | 0.68 ± 0.077 | 0.579 ± 0.041 | 2.26 | – | 2.96 |
| SAOS2 BONE | 1.09 ± 0.027 | 1.07 ± 0.047 | 1.09 ± 0.07 | 0.997 ± 0.088 | 1.24 ± 0.021 | 1.06 ± 0.048 | 0.91 ± 0.053 | 0.73 ± 0.017 | 1.13 ± 0.038 | 1.12 ± 0.069 | 1.18 ± 0.12 | 1.14 ± 0.015 | 1.17 ± 0.14 | 1.14 ± 0.14 | 0.993 ± 0.073 | 1.01 ± 0.14 | 2.32 | 3.16 | – |
| SCC90 HEADNECK | 1.13 ± 0.3 | 0.999 ± 0.1 | 1.13 ± 0.19 | 1.03 ± 0.1 | 1 ± 0.046 | 0.89 ± 0.089 | 0.689 ± 0.012 | 0.547 ± 0.0096 | 0.858 ± 0.053 | 0.819 ± 0.089 | 0.9093 ± 0.0042 | 0.997 ± 0.086 | 1.09 ± 0.17 | 1.05 ± 0.15 | 0.852 ± 0.081 | 0.874 ± 0.087 | 3.31 | – | 3.14 |
| SG27 HEADNECK | 1.22 ± 0.15 | 1.05 ± 0.089 | 1.01 ± 0.13 | 1.08 ± 0.048 | 0.989 ± 0.1 | 0.955 ± 0.088 | 0.824 ± 0.097 | 0.755 ± 0.048 | 1.02 ± 0.036 | 1.06 ± 0.021 | 0.971 ± 0.054 | 0.996 ± 0.1 | 1.14 ± 0.079 | 1.03 ± 0.13 | 0.975 ± 0.14 | 0.9483 ± 0.007 | – | 3.35 | – |
| SG28 HEADNECK | 1.11 ± 0.14 | 1.16 ± 0.17 | 1.066 ± 0.0025 | 1.09 ± 0.018 | 1.03 ± 0.073 | 1.09 ± 0.032 | 0.998 ± 0.081 | 0.809 ± 0.11 | 1.07 ± 0.047 | 1.12 ± 0.061 | 0.968 ± 0.099 | 0.959 ± 0.023 | 1 ± 0.06 | 1 ± 0.16 | 1.06 ± 0.058 | 1.19 ± 0.26 | – | – | – |
| SG31 HEADNECK | 1.07 ± 0.21 | 1.05 ± 0.27 | 1.02 ± 0.078 | 1.01 ± 0.18 | 1.08 ± 0.12 | 1.04 ± 0.042 | 0.948 ± 0.14 | 0.63 ± 0.027 | 1.1 ± 0.21 | 1.07 ± 0.2 | 0.981 ± 0.073 | 0.97 ± 0.14 | 1.07 ± 0.24 | 0.97 ± 0.07 | 1.1 ± 0.067 | 1.11 ± 0.082 | – | 3.26 | 3.45 |
| SUM149.B1*.S BREAST | 1.05 ± 0.026 | 0.971 ± 0.049 | 1.02 ± 0.047 | 0.845 ± 0.031 | 1.06 ± 0.038 | 1.05 ± 0.052 | 0.82 ± 0.038 | 0.523 ± 0.034 | 1.03 ± 0.07 | 1.02 ± 0.034 | 0.998 ± 0.046 | 1.04 ± 0.025 | 1.039 ± 0.0013 | 0.979 ± 0.037 | 0.992 ± 0.029 | 0.967 ± 0.021 | 2.65 | – | 3.39 |
| YAMATO SYNOVIAL | 1.31 ± 0.099 | 0.905 ± 0.031 | 1.19 ± 0.027 | 0.742 ± 0.072 | 1.28 ± 0.068 | 1.16 ± 0.016 | 0.82 ± 0.026 | 0.533 ± 0.038 | 1.19 ± 0.048 | 1.16 ± 0.076 | 1.11 ± 0.04 | 1.01 ± 0.028 | 0.826 ± 0.044 | 0.678 ± 0.018 | 0.374 ± 0.0056 | 0.373 ± 0.02 | 2.65 | – | 2.65 |
